# “Also recorded” adds a separate entry of the source.
# Experiments:
# KK^Ay mice [1] = test: Effects of Wacao saponins on glycemia in KK^Ay T2DM mice (Example 2); type: in vivo
# Excerpt: (§1) 80 male KK^Ay mice (12 weeks of age, License NO. SCXK (BJ) 2009-0015, Beijing Huafukang Biology Technology Co. Ltd.) and 10 male normal C57BL/6 mice (12 weeks of age, License NO. SCXK (BJ) 2009-0015, Beijing Huafukang Biology Technology Co. Ltd.) were adaptively bred for one week, and then used in the pharmacological experiment.
# The animals were housed individually in wood-chip-bedded plastic cages. Germ-free and high-fat diets (Beijing Huafukang Biology Technology Co. Ltd.) were used to feed the KK^Ay mice, and the standard laboratory chows were used to feed normal C57BL/6 mice. All the animals had free access to food and water.
# 80 KK^Ay mice were adaptively bred for 1 week, and then randomly assigned into 8 groups: Model group, Compound (1) group, Compound (2) group, Compound (3) group, Compound (4) group, Compound (7) group, Compound (8) group and metformin group, 10 mice per group. 10 normal C57BL/6 mice were used as the control group. KK^Ay mice were fed with the high-fat diet, and the control group was fed with the normal control diet. The control and model groups were hypodermically injected with sterile water, 6 medicated groups were hypodermically injected with 6 kinds of Wacao saponins, the Compounds (1), (2), (3), (4), (7) and (8), and the positive group (metformin group) was irrigated per oral. All groups were administrated at 9 am for 2 weeks. The administrating volume is 10 ml/kg BW and the administration dosage is shown in Table3.
# All mice of the fasting tail blood glucose level were measured weekly using One Touch ULTRA Glucometer (Life Scan Johnson and Johnson, USA).
# Each compound of Wacao saponins was dissolved into sterile water and sterilized with filtration for Sc. The metformin was dissolved into sterile water for lg. The control and model group mice were injected with sterile water, Sc. All the animals were treated at 9 am for 2 weeks.
# Overnight fasting tail blood glucose level was measured weekly using One Touch ULTRA Glucometer and measured for twice.
# Each group was administrated for 2 weeks (14 days) and then the experiment was terminated.
# Results are expressed as means±SD. Statistical analysis were analyzed by using SPSS 10.0 software. Data were evaluated with analysis of variance.
# KK^Ay mice [2] = test: Glycemia in KK^Ay mice during treatment and after withdrawal (Example 3); type: in vivo
# Excerpt: as §1, with “60” for “80”, “10 normal” for “10”, “male” for “male normal”, “following” for “pharmacological”
# 60 KK^Ay mice were adaptively bred for 1 week, and then randomly assigned into 6 groups: Model group, Compound (1) group, Compound (2) group, Compound (3) group, Compound (4) group, and metformin group, 10 mice per group. 10 normal C57BL/6 mice were used for the control group. KK^Ay mice were in a high-fat diet, and the control normal mice were in a normal control diet. The control and model groups were hypodermically injected with sterile water, the 6 medicated groups mice were subcutaneously injected with […] Wacao saponins, (Compounds (1), (2), (3) and (4)) respectively, and the positive group was administered metformin by gavage. All mice were administrated at 9 am for 2 weeks and the administration volume is 10 ml/kg BW.
# Compound (1), (2), (3) and (4) were respectively dissolved into sterile water, and sterilized with filtration for Sc. to the medication groups. The metformin was dissolved into sterile water for lg. to the positive control group. Control and model groups animals were injected with sterile water (10 ml/kg BW), Sc. All the animals were treated daily at 9 am for 2 weeks (14 days).
# Blood detection: Blood glucose was measured weekly. Overnight fasting glycemia level was measured with One Touch ULTRA Glucometer for the tail blood test. At the end of the experiment, blood serum was collected for measuring levels of fasting blood glucose and insulin, and the insulin sensitivity index (ISI) was calculated. At the same time, hepatic tissues and skeletal muscles of mice were taken out to determine levels of hepatic and muscle glycogen by detection kits.
# Termination of the experiment After administrating mice for 2 weeks (14 days), the experiment was terminated.
# This experiment is to observe the anti-hyperglycemia effects of Wacao saponins on KK^Ay mice during and after the period of drug treatment, respectively.
# T2DM rats [3] = test: Fasting glycemia in T2DM model rats (high-fat emulsion + STZ, Example 5); type: in vivo, SD rats
# Excerpt: 50 male SD rats (180-200 g, License NO. SCXK (BJ) 2011-0004, Beijing SPF Experimental Animal Technology Co. Ltd.) were adaptively bred for 1 week, and then used in the pharmacological experiment.
# Animals were housed individually in wood-chip-bedded plastic cages and fed a standard laboratory chow. All the animals had ad libitum access to food and water.
# (§2) 50 SD rats were adaptively bred for 1 week, and then randomly assigned into 5 groups: The control group, model group, Compound (1) group, Compound (2) group and glucobay group (the positive group), 10 rats per group. All the animals were in a standard laboratory diet. Control and model group animals were hypodermically injected with sterile water, test compound treatment groups were subcutaneously injected with the Compounds (1) and (2), and the positive group was administrated glucobay solution by gavage. All the animals were administrated at 9 am for 2 weeks, and the dose volume is 10 ml/kg BW.
# (§3) The Compounds (1) and (2) were dissolved into sterile water, and sterilized with filtration, Sc. Glucobay was dissolved into sterile water, lg. Animals in the control and model groups were injected with sterile water (10 ml/kg BW), Sc. All the animals were treated at 9 am for 2 weeks (14 days).
# (§4) All rats except the control group were administrated intragastrically with the high-fat emulsion (10 ml/kg) and weighed the body weight weekly. After weeks of administration, rats were intraperitoneally injected with streptozotocin (STZ, dissolved in citric acid-citrate sodium solution, pH 4.2, freshly prepared and used instantly, and store away from light) (30mg/kg). 4 days later, blood glucose level in rats was measured by tail blood test. Diabetes was defined as fasting blood glucose level>11.1 mmol/Lin in this experiment.
# The blood glucose level was measured before and after administration of the treatment compounds for 2 weeks, respectively. The animals were fasted overnight and tail blood samples were taken. Fasting glycemia was measured by using One Touch ULTRA Glucometer or kits.
# T2DM rats [4] = test: Glycosylated serum protein (GSP) and liver and muscle glycogen in T2DM rats (Example 5); type: in vivo, SD rats; conditions: 4.0 mg/kg Sc vs glucobay 20 mg/kg lg
# Excerpt: as §2, §3
# as §4, with “Diabetes was defined as fasting blood glucose level>11.1 mmol/Lin in this experiment.” left out
structure (smiles),measurement,setting,value
"CC(=O)OC1C(OC(=O)/C=C/c2ccc(C)cc2)C(C)OC(OC(=O)[C@]23CCC(C)(C)C[C@H]2C2C=C[C@@H]4[C@@]5(C)CC[C@H](OC6OC(C(=O)O)C(O)C(OC7OCC(O)C(O)C7O)C6OC6OC(CO)C(O)C(O)C6O)[C@@](C)(C=O)[C@@H]5CC[C@@]4(C)[C@]2(C)C[C@H]3O)C1OC1OC(C)C(O)C(O)C1O (some centres unmarked) [Compound (1), sinocrassuloside VI]","glycemia (fasting tail blood glucose), hypoglycemic activity","KK^Ay mice [1]; 2.0 mg/kg BW Sc daily, after 1 week, vs model group",best hypoglycemic activity
same,"anti-hyperglycemia effect, compounds compared with each other","KK^Ay mice [1]; 2.0 mg/kg BW Sc, 2 weeks, ranking",strongest anti-hyperglycemia effect
same,overall anti-diabetic effects,"KK^Ay mice [2]; KK^Ay mice, 2.0 mg/kg Sc, 2 weeks, comparison among compounds",best anti-diabetic effects
same,duration of hypoglycemic effect compared with metformin,"KK^Ay mice [2]; KK^Ay mice, after stopping medication",lasts longer than that of metformin
same,descending rates of blood glucose,"KK^Ay mice [2]; T2DM mice, 2 mg/kg, two weeks after subcutaneous injection",70%
same,anti-hyperglycemia efficacy compared with glucobay,"T2DM rats [3]; 4.0 mg/kg Sc vs glucobay 20 mg/kg lg, 2 weeks",much stronger than that of the glucobay
same,glycemia level,"T2DM rats [3]; 4.0 mg/kg Sc, after 2 weeks, vs model group",significantly decreased
same,effect on glycogen levels and GSP levels compared with glucobay,T2DM rats [4],better effect on up-regulating of glycogen levels and down-regulating of GSP levels; also recorded: superior to that of glucobay; also recorded: stronger than glucobay

# — patent US20160324884A1, “TREATMENT OF DIABETES WITH PENTACYCLIC TRITERPENOID SAPONIN COMPOUNDS FROM SZECHUAN MELANDIUM ROOT” (priority 2013, published 2016)
